Data reported in ChEMBL document CHEMBL1201862, “PubChem BioAssay data set” (2004).
Calls of active or inactive are those of the source.

Key:
[1] = viability of PTEN-deleted HCT116 cells – cell-based, HCT116 PTEN knockout, dose response (AID 1047); assay type: functional;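 note: HCT116 colon tumor cells with PTEN knocked out; cells exposed to compound for 60 hours before readout; potency for loss of cell viability measured by luminescence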
[2] = viability of HCT116 lacking mutant beta-catenin – cell-based, human colon tumor, dose response (AID 1045); assay type: functional;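 note: HCT116 colon tumor cells with beta catenin knocked out; cells exposed to compound for 60 hours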
[3] = Luminescence Cell-Based Dose Retest to Confirm Inhibitors of Cancer Stem Cells. [Related pubchem assays (depositor defined):AID2717, AID2721]; assay type: functional; conditions: Homo sapiens
[4] = reduction of Shn3 3'UTR-driven luciferase in osteoblasts – cell-based, Clone20 osteoblasts, firefly luciferase, cherry-picked, dose response (AID 624132); assay type: functional;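 note: firefly luciferase luminescence from reporter carrying the Shn3 3'UTR in osteoblasts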
[5] = loss of viability in HepG2 cells – cell-based, CellTiter-Glo, cherry-picked, cytotoxicity control for Shn3 inhibitor project, dose response (AID 624134); assay type: functional
[6] = non-specific 3'UTR reporter inhibition in Clone20-Shn3RL – cell-based, Renilla luciferase, cherry-picked, counter-screen for Shn3 inhibitor project, dose response (AID 624133); assay type: functional
[7] = biological target: T1, Polyadenylate-binding protein 1 (Homo sapiens, UniProt P11940); experiment: MLLE binding blockers, Cy5 peptide tracer – biochemical, fluorescence polarization, Cy5-PAM2 peptide, secondary, miRNA deadenylation inhibitor project, dose response (AID 602260); assay type: functional; conditions: read-out: IC50_Mean
[8] = biological target: T1, Polyadenylate-binding protein 1; experiment: MLLE domain peptide-binding blockers, IC50 – biochemical, fluorescence polarization, FITC-PAM2 peptide, dose response (AID 602259); assay type: functional; conditions: read-out: IC50_Mean
[9] = biological target: T2, RNA-binding protein pos-1 (Caenorhabditis elegans, UniProt G5EF15); experiment: disruptors of C. elegans POS-1 RNA interaction – biochemical, fluorescence polarization, dose response (AID 1964);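 note: purified POS-1 fused to maltose binding protein made in E. coli; potency of compounds blocking POS-1 binding to fluorescent RNA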
T2 sequence (G5EF15 whole entry): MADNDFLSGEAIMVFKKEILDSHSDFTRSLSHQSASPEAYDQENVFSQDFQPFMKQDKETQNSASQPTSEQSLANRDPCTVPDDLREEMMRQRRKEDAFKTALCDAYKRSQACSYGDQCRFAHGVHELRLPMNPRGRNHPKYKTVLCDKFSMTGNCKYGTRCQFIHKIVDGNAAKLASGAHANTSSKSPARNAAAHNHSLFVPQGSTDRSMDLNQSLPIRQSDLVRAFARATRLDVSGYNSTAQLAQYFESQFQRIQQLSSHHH

[10] = biological target: T3, Zinc finger protein mex-5 (Caenorhabditis elegans, UniProt Q9XUB2); experiment: potency of MEX-5 RNA-binding blockers – biochemical, C. elegans, fluorescence polarization, dose response (AID 1960)
T3 sequence (Q9XUB2 whole entry): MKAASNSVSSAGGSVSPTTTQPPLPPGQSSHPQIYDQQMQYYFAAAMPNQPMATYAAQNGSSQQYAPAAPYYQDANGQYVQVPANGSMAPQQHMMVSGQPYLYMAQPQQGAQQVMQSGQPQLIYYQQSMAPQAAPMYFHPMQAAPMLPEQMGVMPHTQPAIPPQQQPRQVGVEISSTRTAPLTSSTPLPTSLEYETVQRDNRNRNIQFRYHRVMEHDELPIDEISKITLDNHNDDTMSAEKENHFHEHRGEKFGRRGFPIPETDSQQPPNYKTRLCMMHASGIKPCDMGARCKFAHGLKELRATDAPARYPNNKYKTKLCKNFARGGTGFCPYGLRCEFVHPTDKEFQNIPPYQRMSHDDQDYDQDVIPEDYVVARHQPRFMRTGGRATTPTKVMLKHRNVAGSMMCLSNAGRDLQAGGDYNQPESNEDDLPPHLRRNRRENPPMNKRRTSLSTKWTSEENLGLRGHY

[11] = NIH-3T3 fibroblast cytotoxicity, dose response, cytotoxicity control, cell-based, fluorescence, Alamar Blue, secondary assay (AID 2327); assay type: functional;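 note: NIH-3T3 mouse fibroblasts cultured with fluconazole at 8 µg/mL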
[12] = fluconazole-exposed Candida albicans growth modulators – fluorescence, retest, confirmation (AID 2467); assay type: functional, cell-based
INS1 = experiment: INS-1E survival protection against cytokine death – cell-based, luminescence, retest, dose response (AID 449756); assay type: functional; conditions: Rattus norvegicus;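 note: cell death triggered by IL-1 beta plus TNF-alpha plus IFN-gamma mixture; protective hits raise ATP signal compared with cytokine alone wells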

T1 sequence (P11940 whole entry, the tested form may be a part): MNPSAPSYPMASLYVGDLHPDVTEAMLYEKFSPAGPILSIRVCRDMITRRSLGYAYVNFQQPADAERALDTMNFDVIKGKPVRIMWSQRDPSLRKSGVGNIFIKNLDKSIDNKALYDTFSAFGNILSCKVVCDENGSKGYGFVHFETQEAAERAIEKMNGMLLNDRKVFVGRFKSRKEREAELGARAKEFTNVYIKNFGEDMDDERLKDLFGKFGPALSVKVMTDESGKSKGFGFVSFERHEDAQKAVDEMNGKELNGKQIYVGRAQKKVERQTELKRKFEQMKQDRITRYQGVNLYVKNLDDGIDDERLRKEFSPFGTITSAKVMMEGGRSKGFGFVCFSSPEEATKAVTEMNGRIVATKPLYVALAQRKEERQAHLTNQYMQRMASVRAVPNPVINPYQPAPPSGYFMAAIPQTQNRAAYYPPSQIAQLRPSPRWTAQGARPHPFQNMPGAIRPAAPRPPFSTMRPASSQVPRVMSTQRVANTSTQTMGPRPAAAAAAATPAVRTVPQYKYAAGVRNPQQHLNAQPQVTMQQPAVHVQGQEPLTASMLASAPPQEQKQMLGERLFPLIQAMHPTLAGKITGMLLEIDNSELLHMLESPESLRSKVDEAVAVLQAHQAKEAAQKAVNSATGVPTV

Question: For `Cc1ccc(Cl)cc1NC(=O)c1ccccc1OCC(=O)Nc1ccc(Cl)cc1`, which EC50 [1] is on record?
Answer: 8.82 µM (active)

Question: What about the EC50 [2] of the same compound?
Answer: 10.9 µM (active)

Question: And the AC50 [3]?
Answer: 10.6 µM (inconclusive)

Question: For `CCOC(=O)C1(Cc2cccc(OC)c2)CCN(C/C=C/c2ccc(OC)cc2)CC1`, which AC50 [4] is on record?
Answer: 4.75 µM (active)

Question: What about the AC50 [5] of the same compound?
Answer: 51.6 µM (active)

Question: What about the AC50 [6] of the same compound?
Answer: 5.59 µM (active)

Question: Which IC50 [7] does the source give for `C=CCNC(=S)NS(=O)(=O)c1cccs1` here?
Answer: > 66 µM (inactive)

Question: What about the IC50 [8] of the same compound?
Answer: > 66 µM (inactive)

Question: Which results are given for `Cn1c(COc2ccc(Br)cc2)nnc1SC1CCc2ccccc2C1=O` (stereo not given)?
Answer: AC50 [4]: 35.2 µM (active); AC50 [5]: 58.9 µM (active); AC50 [6]: 12.5 µM (active)

Question: For `COc1cc(C(CC(=O)N2CCCC2)c2c(OC)cc(OC)c3ccc(=O)oc23)cc(OC)c1OC` (stereo not given), which EC50 [9] is on record?
Answer: 8.14 µM (inconclusive)

Question: What about the EC50 [10] of the same compound?
Answer: 16.2 µM (active)

Question: And the IC50 [7]?
Answer: > 66 µM (inactive)

Question: And the IC50 [8]?
Answer: 60.3 µM (inactive)

Question: Which results are given for `N#CCSc1nnc(CNc2ccc(F)cc2)o1`?
Answer: IC50 [7]: > 66 µM (inactive); IC50 [8]: > 66 µM (inactive)

Question: With `O=C(Nc1nnc(COc2ccc(F)cc2)s1)c1ccco1` as the compound, how does the EC50 [11] read?
Answer: > 160 µM (inactive)

Question: What about the EC50 [12] of the same compound?
Answer: 3.15 µM (active)

Question: With `O=C(Nc1nnc(-c2cccs2)o1)c1cccc(F)c1` as the compound, how does the EC50 [11] read?
Answer: > 160 µM (inactive)

Question: What about the EC50 [12] of the same compound?
Answer: 1.25 µM (active)

Question: What about the EC50 [1] of the same compound?
Answer: 10.5 µM (active)

Question: What about the EC50 [2] of the same compound?
Answer: 8.96 µM (active)

Question: For `O=C(N/N=C/c1cc([N+](=O)[O-])ccc1O)C1C2CCCCC21` (stereo not given), which EC50 [11] is on record?
Answer: > 150 µM (inactive)

Question: What about the EC50 [12] of the same compound?
Answer: 2.35 µM (active)

Question: What does the source list for `CC(C)C1=C2CCCCC2NC(=O)N1` (stereo not given)?
Answer: IC50 [7]: > 66 µM (inactive); IC50 [8]: > 66 µM (inactive)

Question: What does the source list for `COc1ccccc1CNc1nc(NCc2ccccc2SC)c2sccc2n1`?
Answer: AC50 [4]: 4.48 µM (active); AC50 [5]: 21.1 µM (active); AC50 [6]: 5.2 µM (active)

Question: Which EC50 [11] does the source give for `Cc1cc(O)c(/C=N/Nc2ccc(Cl)cc2)c(=O)o1` here?
Answer: 29.8 µM (active)

Question: And the EC50 [12]?
Answer: 0.273 µM (active)

Question: What does the source list for `Cn1c(C(=O)NC2CCCCCC2)cc2c(=O)n(C)c3ccccc3c21`?
Answer: EC50 [1]: 24.4 µM (active); EC50 [2]: 21.1 µM (active)

Question: With `CCCOc1nc2c(c(=O)n(C)c(=O)n2C)n1Cc1cccc2ccccc12` as the compound, how does the EC50 [1] read?
Answer: 49 µM (active)

Question: And the EC50 [2]?
Answer: 27.1 µM (active)

Question: And the AC50 (INS1)?
Answer: 6.39 µM (active)

Question: Which results are given for `S=C(NCCCCN(Cc1ccc(Cl)cc1)c1ccc(Br)cn1)NCCCc1cnc[nH]1`?
Answer: AC50 [4]: 7.24 µM (active); AC50 [5]: 19.5 µM (active); AC50 [6]: 39.3 µM (active)
